We go through one molecule from US10358464B2, “Specific binding sites in collagen for integrins and use thereof” (The Texas A&M University System, priority 2005, dated 2019).

Molecules are shown by their SMILES. pKd: −log10 of the molar value. Non-standard residues stand in square brackets, D forms with d. Residues, ends and D or L forms follow the SMILES beside them. Hyp = O=C(O)[C@@H]1C[C@@H](O)CN1

In data set [1] the target is T1, α2I binding to type III collagen (Homo sapiens, UniProt P17301).
T1 construct: recombinant I domains from integrins α1 and α2 (α1I and α2I); made in house
The experiment in a line: Competition ELISA, inhibition of I domain binding to type III collagen. Conditions: 100 μM peptide, 5 μM α2I, type III procollagen-coated wells.

For another data set, the system named is MRC-5 cells. The experiment in a line: Cell attachment assay on coated substrates. In kind it is cell-based, human. Particulars: room temperature. The protocol:
Reagents and Cell Culture. The human recombinant mature type III collagen used for cell attachment assays was purchased from FibroGen. All cell culture media components were purchased from Invitrogen. The human lung fibroblast cell line MRC-5 was purchased from American Type Culture Collection (ATCC) (Manassas, Va.). The cells were cultured and passaged in Dulbecco's modified Eagle's medium (DMEM) supplemented with 10% fetal bovine serum, 100 unit/ml penicillin and 100 μg/ml streptomycin. The cells were grown to subconfluence and passaged every 2-3 days.
Cell attachment assay. MRC-5 cells were starved overnight in serum deficient DMEM containing penicillin and streptomycin, then detached using 1 mM EDTA and 0.025% trypsin at 37° C. for 2 minutes. The cells were washed with PBS and resuspended in DMEM containing 0.2% BSA supplemented with 2 mM MgCl2. 100 μl of the cell suspension (˜1.5×10^5 cells/ml) were added to the microtiter wells coated with different concentrations of collagen or collagen peptides and blocked with PBS containing 0.5% (w/v) BSA. After incubation at room temperature for 45 min, the wells were washed with PBS. Attached cells were fixed with 3% p-formaldehyde for 10 min at room temperature. Following washing with cold Tris-buffered saline (TBS), pH 7.4, cells were fixed again in 20% methanol for 10 min and stained with 0.5% crystal violet for 5 min. The wells were thoroughly washed with distilled water and air-dried. Sodium citrate (0.1 M) was then added to the wells to dissolve the dye and the absorbance at 590 nm was measured. The maximum cell attachment on type III collagen was set to 100% and, residual attachment on BSA was set to 0%.
Adhesion of MRC-5 cells to peptide#1 (SEQ ID NO: 15) substrates. […] Wells in 96-well plates were coated with increasing concentrations of type III collagen, peptide #1 (SEQ ID NO: 15) or #2 (SEQ ID NO: 16) and 1.5×10^4 MRC-5 cells were added to each well. The plate was incubated for 45 min at room temperature and adhering cells were quantified as described herein.

The target of another data set is α1I (Homo sapiens, UniProt P56199). The experiment in a line: SPR, I domain binding to immobilized synthetic collagen peptide.
Data set [2] can be described thus: CD temperature-dependent denaturation of triple helix. In kind it is physicochemical. Conditions: CD ellipticity at 225 nm, 20° C./hr, Boltzmann sigmoidal fit. As for the experimental part:
Circular Dichroism (CD) Spectroscopy. Synthetic collagen peptides were analyzed by CD spectroscopy, as described previously (18) with the following modifications. Briefly, peptides were dissolved in HBS to a concentration of 50 μM. CD spectra were collected on a Jasco J720 spectropolarimeter (Tokyo, Japan) from 190 to 240 nm, with bandwidth of 1 nm and integrated for 1 s at 0.2 nm intervals. Samples were measured at room temperature using cuvettes with 0.02 cm path length. For temperature-dependent denaturation analysis, […] of peptides were added to a thermostatically controlled cuvette with a 0.5 cm path length. Thermal transition profiles were recorded at 225 nm as described above with a temperature slope of 20° C./hr. To calculate the temperature melting points, the thermal transition profiles were fitted with Boltzmann sigmoidal model using the GraphPad Prism™ software (GraphPad Software Inc., San Diego, Calif.).

Another data set concerns the target α2I (Homo sapiens, UniProt P17301). Kind of data set: SPR, I domain binding to immobilized synthetic collagen peptide.
For data set [3], the target named is T2, α1I binding to type III collagen (Homo sapiens, UniProt P56199).
T2 construct: recombinant I domains from integrins α1 and α2 (α1I and α2I); made in house
Kind of data set: Competition ELISA, inhibition of I domain binding to type III collagen. Conditions: 100 μM peptide, 0.5 μM α1I, type III procollagen-coated wells.

Setting [4] is: 30 nM I domain, 2 mM EDTA versus 1 mM MgCl2.

Sequence of α2I (P17301 188-365 limits assumed): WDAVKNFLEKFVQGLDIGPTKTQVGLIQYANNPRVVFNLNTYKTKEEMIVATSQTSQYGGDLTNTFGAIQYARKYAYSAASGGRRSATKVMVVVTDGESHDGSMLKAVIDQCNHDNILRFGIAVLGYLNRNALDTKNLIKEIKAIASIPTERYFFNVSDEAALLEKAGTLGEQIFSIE
Sequence of α1I (P56199 161-360 limits assumed): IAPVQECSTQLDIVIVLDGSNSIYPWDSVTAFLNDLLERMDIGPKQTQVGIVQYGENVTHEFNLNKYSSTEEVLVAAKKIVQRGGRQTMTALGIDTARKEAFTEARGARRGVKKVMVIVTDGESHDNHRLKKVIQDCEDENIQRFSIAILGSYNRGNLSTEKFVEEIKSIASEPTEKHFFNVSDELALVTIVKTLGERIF
T1 sequence (P17301 188-365 limits assumed): as the sequence (P17301 188-365 limits assumed) above
T2 sequence (P56199 161-360 limits assumed): as the sequence (P56199 161-360 limits assumed) above

Regarding `CC(C)C[C@H](NC(=O)CNC(=O)[C@H](CCCNC(=N)N)NC(=O)[C@H](CCC(=O)O)NC(=O)CNC(=O)[C@@H]1C[C@@H](O)CN1C(=O)[C@H](CCCNC(=N)N)NC(=O)CNC(=O)[C@@H]1C[C@@H](O)CN1C(=O)[C@H](CCCNC(=N)N)NC(=O)CNC(=O)[C@@H]1C[C@@H](O)CN1C(=O)[C@@H]1CCCN1C(=O)CNC(=O)[C@@H]1C[C@@H](O)CN1C(=O)[C@@H]1CCCN1C(=O)CNC(=O)[C@@H]1C[C@@H](O)CN1C(=O)[C@@H]1CCCN1C(=O)CN)C(=O)N1C[C@H](O)C[C@H]1C(=O)NCC(=O)N1CCC[C@H]1C(=O)N1C[C@H](O)C[C@H]1C(=O)NCC(=O)N1CCC[C@H]1C(=O)N1C[C@H](O)C[C@H]1C(=O)NCC(=O)N1CCC[C@H]1C(=O)N1C[C@H](O)C[C@H]1C(N)=O` [peptide #1, (GPO)3GROGROGERGLO(GPO)3] (H-GP[Hyp]GP[Hyp]GP[Hyp]GR[Hyp]GR[Hyp]GERGL[Hyp]GP[Hyp]GP[Hyp]GP[Hyp]-NH2; N-terminus and C-terminus assumed), the inhibition (in general, the drop in the measured response relative to a control, in per cent) at 100 µM in data set [1] is 80%; in data set [3], 100%. Further, the “adhesion of MRC-5 cells to coated substrate” value in the data set with MRC-5 cells (increasing coating concentrations, 1.5×10^4 cells per well, 45 min) is recorded as “could support adhesion of MRC-5 cells in a dose-dependent manner”. In the data set on MRC-5 cells (1.5 hrs (data not shown)), the “cell spreading on coated substrate” value is recorded as “Considerable cell spreading”. Moreover, the negative-log Kd (pKd) (usually the Kd on a negative log10 scale, so that one unit is a factor of ten) on α1I is 7.64; at α2I it was 6.55. Moreover, the off-rate constant (koff) (in general, a measure of how fast the partners let go of each other) at α1I stood at 0.0013 s⁻¹; on α2I it was 0.012 s⁻¹. For the same molecule, the on-rate constant (kon) (usually the second-order rate constant of association) at α1I was determined as 56000 M⁻¹ s⁻¹; at α2I, 44000 M⁻¹ s⁻¹. Further, the “binding in the presence of EDTA” value at α1I (setting [4]) and on α2I (setting [4]) was “completely abolished binding” each time. Further, the “dissociate rate” value is 1.3 s^−1×10^3 on α1I (15° C., 1:1 binding model) and 12 s^−1×10^3 on α2I (15° C., 1:1 binding model). Besides, the “melting temperature (Tm) of triple helix” value in data set [2] came out at 43 °C.
